The source of these data is US20160000702A1, “PHARMACEUTICAL COMPOSITION FOR ENHANCED TRANSMUCOSAL ADMINSTRATION OF BENZODIAZEPINES” (EASTGATE PHARMACEUTICALS INC., priority 2013, published 2016).

Converted amounts (≈) assume the structure as drawn.

The conditions of series [1]: intranasal, human patients, anti-seizure activity; cited from earlier work.
The next series is described as follows: physchem. The settings on record: for solubility: oil or lipid. How it is done:
After combining of pre-weighed amounts of components they were gently triturated at room temperature (20-22° C.) using a stainless steel spatula until liquid phase is formed.

The next series concerns PTZ induced seizures. The series is described as follows: Timed intravenous PTZ infusion test (ivPTZ). In kind it is in vivo, mice. The settings on record: Lorazepam 2.5 mg/kg (Graph 5). An excerpt:
For investigation of anti-seizure activity of invented formulations, a timed intravenous PTZ infusion test was employed.
The technique of timed i.v. PTZ (pentylenetetrazole) infusion test (ivPTZ) is a simple, reproducible and fast method for assessment of onset, peak, duration and potency of various anticonvulsants and proconvulsants in animals. This test provides an extremely sensitive parametric method for assessing seizure threshold in individual animals and a quantifiable endpoint can be obtained with a minimal number of animals. Different seizure types can be chosen as endpoint in this test. Usually, the first seizure occurring during the PTZ infusion is a myoclonic twitch, followed by clonic and, later, tonic seizures. […]
During the infusion, mice are observed for the onset of different types of seizures. The time latencies from the start of infusion to the appearance of the first clonus (characterized by rapid involuntary rhythmic contraction and relaxation of limbs), lasting longer than 5 seconds, are recorded. […]
The infusion of PTZ will be terminated at 2 min, in case of non-appearance of clonic seizures. For such animals, the dose of PTZ in mg/kg infused during the course of 2 min is calculated as the threshold dose.
The threshold doses of PTZ producing clonic seizures are calculated (in mg/kg) using the following formula: […]

Series [2] in a line: Water solubility of Lorazepam in saline. Conditions: saline or isotonic.

For `Cc1ncc2n1-c1ccc(Cl)cc1C(c1ccccc1F)=NC2` [Midazolam], the Onset of action entry in series [1] is reported as “approximately 10 minutes”.
For `O=C1Nc2ccc(Cl)cc2C(c2ccccc2Cl)=NC1O` (stereo not drawn) [Lorazepam], the solubility (usually the concentration that dissolves in the medium under given conditions) in “physchem” (Lorazepam solubility in MCT with 5% Menthol, MCT oil + 5% Menthol by weight) is 5500 µg/mL; in the series “physchem” (Lorazepam solubility in MCT with 8% Menthol, MCT oil + 8% Menthol), 6800 µg/mL; in “physchem” (Solubility in capric/caprylic triglycerides (MCT oil), pure MCT oil, RT) it was 4300 µg/mL (≈ 13.4 mM); in “physchem” (Solubility of Lorazepam in peppermint oil, peppermint oil containing about 45% of menthol), 38900 µg/mL (≈ 121 mM); in series [2] it was ~27 µg/mL (≈ 0.0841 mM). Further, the “Increase of Lorazepam solubility, MCT with 5% Menthol” value in “physchem” (versus pure MCT oil) was determined as 28%. Moreover, the “Increase of Lorazepam solubility, MCT with 8% Menthol” value in “physchem” (versus pure MCT oil) is reported as ~60%. In addition, the “Time to maximal protection” value with PTZ induced seizures is listed as “approximately 5 minutes”.
